# Laboratory results reported in patent US20150126530A1, “Novel Substituted Imidazopyrimidines as Gpbar1 Receptor Modulators” (Torrent Pharmaceuticals Limited., priority 2011, published 2015).
# pEC50: −log10 of the molar value.
# Assays:
# DIO mice = assay: Efficacy study on repeated dosing in DIO mice; assay type: in vivo; settings: od; for % Change in body wt from basal: repeated administration
# Method: (§1) ii) Evaluation of Efficacy of Test Compounds on Repeated Dosing in Diabetic Hamster and DIO Mice. […]
# b) Efficacy Study in DIO Mice
# Male C57B1/6J mice were made insulin resistant by feeding on High fat diet (45.5% Kcal from Fat, Research Diet) from the age of 6-8 week onwards. After being on High fat diet for 6-8 weeks the animals with similar body weights & fasting plasma glucose were further randomized into treatment groups. Then the animals were treated with compounds 7 to assess the efficacy potential during treatment duration. Effect of treatment on glucose excursion and insulin secretion during OGTT, Fasting Plasma Glucose & Insulin, lipid profile and body weight were evaluated. The compound for enhancing energy expenditure was evaluated by monitoring oxygen consumption (VO2) and carbon dioxide release (VCO2) over 24 hrs period by indirect calorimetry (Oxymax System, Columbus Instruments).
# Similarly, the study was conducted in DIO mice with compound no 50 of the present invention.
# human TGR5 [1] = target: T1, human TGR5 (Homo sapiens, UniProt Q8TDU6); assay: cAMP Responsive Element (CRE)-Reporter Assay; assay type: cell-based; settings: luciferase activity relative to vehicle control, five hours, CHO cells transfected with human TGR5 and CRE-luciferase
# T1 construct: host or cells: CHO cells (ATCC)
# T1 sequence (Q8TDU6 1-330): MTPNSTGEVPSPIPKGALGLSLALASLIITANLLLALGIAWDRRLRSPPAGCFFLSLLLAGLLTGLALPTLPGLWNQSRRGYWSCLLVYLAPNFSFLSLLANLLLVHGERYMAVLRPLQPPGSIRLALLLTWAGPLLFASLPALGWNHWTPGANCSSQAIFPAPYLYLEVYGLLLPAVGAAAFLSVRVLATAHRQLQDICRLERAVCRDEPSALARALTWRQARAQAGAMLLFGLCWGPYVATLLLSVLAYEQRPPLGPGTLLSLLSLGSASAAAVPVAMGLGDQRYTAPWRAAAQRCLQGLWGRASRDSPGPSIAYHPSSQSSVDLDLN
# Method: (A) cAMP Responsive Element (CRE)-Reporter Assay:
# CHO cells (ATCC) were transfected with human TGR5 (oriGene) and CRE-luciferase reporter vector. Transfected cells were treated with vehicle control or test compounds (Conc 10 μM) for five hours and then lysed. Cell lysates were monitored for luciferase acivity. Increase in luciferase activity is considered as a result of TGR5 activation. Results were expressed as fold induction as compared to vehicle control.
# Results are summarized in Table 2 where, + indicates 1.5-2 fold while ++, +++, ++++ indicate 2-3 fold, 3-4 fold, and >4 fold induction respectively relative to vehicle control when tested at 10 μM concentration.
# Diabetic Hamster [2] = assay: Single dose efficacy on glucose tolerance (OGTT) in diabetic hamster; assay type: in vivo; settings: Mesocricetus auratus, read-out: Decrease in AUC of glucose % change w.r.t. vehicle control group
# Method: i) Evaluation of Single Dose Efficacy of Test Compounds on Glucose Tolerance:
# Thus efficacy can be assessed through the effect of test compounds on lowering of plasma glucose during OGTT through stimulating glucose stimulated insulin secretion.
# The potential of test compounds in lowering of Plasma Glucose was evaluated in Oral glucose tolerance test (OGTT) in Diabetic Hamster Model, where diabetes has been induced by administration of low dose of Streptozotocin (STZ) to the High fat diet (HFD) fed glucose intolerant animals. The diabetic hamsters show impaired glucose stimulated insulin secretion and higher plasma glucose excursions than the normal animals, which remains elevated beyond 2 hrs post glucose load. Thus the animal model can be used for evaluating the potential of test compounds to lower plasma glucose through stimulating glucose stimulated insulin secretion. On the day of study post 6 hrs of fasting, test compounds or vehicle was administered orally at dose volume of 2 ml/kg to the hamsters of the respective treatment groups. Subsequent to dosing, a pre-glucose load blood sample was taken. A glucose load of 40% solution at 5 ml/Kg dose volume was administered orally. Blood samples through retroorbital plexus were taken at 15, 30 60 & 120 min. post glucose load and plasma was separated for glucose measurement. Post glucose load percentage change in plasma glucose and AUC of % change glucose by the treatment was assessed.
# human TGR5 [3] = target: T1, human TGR5; assay: cAMP Measurement Assay (Alphascreen); assay type: cell-based; settings: cAMP levels, CHO cells transfected with human TGR5, one hour
# Method: (B) cAMP Measurement Assay:
# CHO cells (ATCC) were transfected with human TGR5 vector (oriGene). Transfected cells were treated with vehicle control or test compounds for one hour and then lysed. Levels of cAMP were measured in cell lysates employing Alphascreen cAMP assay kit (Perkin Elmer) and results were expressed EC50 values which are summarized in Table 3.
# [4] = tested on: Human enteroendocrine cell-line (NCI-H716); assay: Measurement of Glucagon Like Peptide-1 (GLP-1) secretion; assay type: cell-based; settings: NCI-H716 cells, one hour, with respect to vehicle control
# Method: (C) Measurement of Glucagon Like Peptide-1 (GLP-1):
# Human enteroendocrine cell-line (NCI-H716) were incubated with vehicle or test compounds for one hour. At the end of incubation period, levels of secreted GLP-1 in culture medium were measured by GLP-1 ELISA kit (Millipore). Results are summarized as fold increase in GLP secretion with respect to vehicle control in Table 4.
# Diabetic Hamster [5] = assay: Efficacy study on repeated dosing in diabetic hamster; assay type: in vivo; settings: for HOMA-IR: from fasting glucose and insulin
# Method: as §1
# a) Efficacy Study in Diabetic Hamster
# Diabetic hamsters were randomized to two treatment groups viz. vehicle treated and test compound treated group. Then the animals were treated with compound 7 of present invention or vehicle for 2 weeks to assess the efficacy potential of the compound. Effect of treatment on glucose excursion and insulin secretion during OGTT, change in body weight & fasting and random plasma triglycerides (TG) was evaluated during the treatment period. The effect of repeated administration of compound on energy expenditure was evaluated through monitoring oxygen consumption (VO2) over 21 hrs period by indirect calorimetry (Oxymax System, Columbus Instruments). HOMA-IR an index of insulin resistance was estimated using fasting glucose and insulin levels estimated during OGTT.
# Similarly, the study was conducted using compound no 50 of the present invention for the duration of four week period in Diabetic hamsters.
# [6] = 9 mg/kg, listed as compound no. 50, 9 mg/kg
# [7] = 6 mg/kg, i.p. OD, four week, listed as compound no. 50, 6 mg/kg
# [8] = compound no. 50 repeated dosing, four week
# [9] = 1.5 mg/kg, listed as compound no. 7, 1.5 mg/kg
# [10] = 20 mg/kg, po, bid, 2 weeks, listed as compound no. 7, 20 mg/kg
# [11] = compound no. 7 repeated dosing, 2 weeks
compound,measurement,setting,value
"CN(C(=O)c1c(Oc2ccc(F)cc2)nc2ncccn12)c1ccc(Cl)cc1 [Compound no. 50, N-(4-chlorophenyl)-2-(4-fluorophenoxy)-N-methylimidazo[1,2-a]pyrimidine-3-carboxamide]",AUC_Insulin % change during OGTT,DIO mice; 9 mg/kg,12938.8
same,AUC_glucose % change during OGTT,DIO mice; 9 mg/kg,7763.5
same,HOMA-IR,DIO mice; 9 mg/kg,1.96
same,Oxygen consumption,DIO mice; 9 mg/kg,46.125 mL/min/kg
same,AUC_Insulin % change during OGTT,DIO mice; [6],improved insulin secretion
same,AUC_glucose % change during OGTT,DIO mice; [6],reduced glucose excursion
same,HOMA-IR,DIO mice; [6],decrease in HOMA-IR
same,Oxygen consumption,DIO mice; [6],increased energy expenditure
same,% Change in body wt from basal,DIO mice; 9 mg/kg,−3.29%
same,% Change in body wt from basal,DIO mice; [6],reduced body weight
same,fold induction at 10 µM,human TGR5 [1],> 4
same,inhibition in vivo at 40 mg/kg,Diabetic Hamster [2]; single oral dose 40 mg/kg,10%
same,pEC50,human TGR5 [3],6.45
same,Fold increase in GLP Release,[4],1.74 fold
same,% Change in body wt from basal,"Diabetic Hamster [5]; 6 mg/kg, i.p. OD, four week",−1.56%
same,AUC_glucose % change during OGTT,"Diabetic Hamster [5]; 6 mg/kg, i.p. OD, four week",6225.7
same,Fasting plasma TG,"Diabetic Hamster [5]; 6 mg/kg, i.p. OD, four week",97.8 mg/dL
same,Oxygen consumption,"Diabetic Hamster [5]; 6 mg/kg, i.p. OD, four week",25.0092 mL/min/kg
same,% Change in body wt from basal,Diabetic Hamster [5]; [7],reduced body weight
same,AUC_glucose % change during OGTT,Diabetic Hamster [5]; [7],reduced glucose excursion
same,Fasting plasma TG,Diabetic Hamster [5]; [7],decreased plasma TG levels
same,Oxygen consumption,Diabetic Hamster [5]; [7],increased energy expenditure
same,decrease in LDL,Diabetic Hamster [5]; [8],16%
same,decrease in non HDL,Diabetic Hamster [5]; [8],24%
same,improvement in HDL:LDL ratio,Diabetic Hamster [5]; [8],16%
"CN(C(=O)c1c(-c2ccc(F)cc2)nc2ncccn12)c1ccc(Cl)cc1 [Compound no. 7, N-(4-chlorophenyl)-2-(4-fluorophenyl)-N-methylimidazo[1,2-a]pyrimidine-3-carboxamide]",AUC_Insulin % change during OGTT,DIO mice; 1.5 mg/kg,5431.0 ± 920.9
same,AUC_glucose % change during OGTT,DIO mice; 1.5 mg/kg,4526.7 ± 876.8
same,Fasting plasma TG,DIO mice; 1.5 mg/kg,40.4 ± 2.3 mg/dL
same,HOMA-IR,DIO mice; 1.5 mg/kg,4.7 ± 1.68
same,Oxygen consumption,"DIO mice; 1.5 mg/kg, indirect calorimetry over 24 hrs",51.938 ± 1.768 mL/min/kg
same,Oxygen consumption,"DIO mice; 1.5 mg/kg, indirect calorimetry over 24 hrs, listed as compound no. 7, 1.5 mg/kg",increased energy expenditure
same,AUC_Insulin % change during OGTT,DIO mice; [9],improved insulin secretion
same,AUC_glucose % change during OGTT,DIO mice; [9],reduced glucose excursion
same,Fasting plasma TG,DIO mice; [9],decreased plasma TG levels
same,HOMA-IR,DIO mice; [9],decrease in HOMA-IR
same,% Change in body wt from basal,DIO mice; 1.5 mg/kg,−3.19 ± 1.32%
same,% Change in body wt from basal,DIO mice; [9],reduced body weight
same,fold induction at 10 µM,human TGR5 [1],> 4
same,inhibition in vivo at 38 mg/kg,Diabetic Hamster [2]; single oral dose 38 mg/kg,39%
same,pEC50,human TGR5 [3],7.05
same,Fold increase in GLP Release,[4],3.72 fold
same,% Change in body wt fro basal,"Diabetic Hamster [5]; 20 mg/kg, po, bid, 2 weeks",−5.2 ± 1.6%
same,AUC_Insulin % change during OGTT,"Diabetic Hamster [5]; 20 mg/kg, po, bid, 2 weeks",2280.6 ± 428.8
same,AUC_glucose % change during OGTT,"Diabetic Hamster [5]; 20 mg/kg, po, bid, 2 weeks",12714.43 ± 912
same,Fasting plasma TG,"Diabetic Hamster [5]; 20 mg/kg, po, bid, 2 weeks",188.35 ± 3.7 mg/dL
same,Random plasma T,"Diabetic Hamster [5]; 20 mg/kg, po, bid, 2 weeks",344.38 ± 90.3 mg/dL
same,HOMA-IR,"Diabetic Hamster [5]; 20 mg/kg, po, bid, 2 weeks",15.6 ± 2.1
same,HOMA-IR,Diabetic Hamster [5]; [10],decrease in HOMA-IR
same,Oxygen consumption,"Diabetic Hamster [5]; 20 mg/kg, po, bid, 2 weeks, indirect calorimetry over 21 hrs",22.551 ± 0.638 mL/min/kg
same,Oxygen consumption,"Diabetic Hamster [5]; 20 mg/kg, po, bid, 2 weeks, indirect calorimetry over 21 hrs, listed as compound no. 7, 20 mg/kg",increased energy expenditure
same,% Change in body wt fro basal,Diabetic Hamster [5]; [10],reduced body weight
same,AUC_Insulin % change during OGTT,Diabetic Hamster [5]; [10],improved insulin secretion
same,AUC_glucose % change during OGTT,Diabetic Hamster [5]; [10],reduced glucose excursion
same,Fasting plasma TG,Diabetic Hamster [5]; [10],decreased plasma TG levels
same,decrease in LDL,Diabetic Hamster [5]; [11],14%
same,decrease in non HDL,Diabetic Hamster [5]; [11],24%
same,improvement in HDL:LDL ratio,Diabetic Hamster [5]; [11],24%
same,increase in HDL,Diabetic Hamster [5]; [11],7%
